In PMC3723878 (PLoS ONE, 2013):
Residue numbers refer to the chain shown, from its start.

How the values were obtained:
Assay in all cases: Saturation binding of ^125I-HEAT
[1] = target: T1, human α1A-AR F187A variant (Homo sapiens, UniProt P35348, F187A)
T1 construct: expressed in transfected cells; host or cells: COS-7, transient (calcium phosphate)
T1 sequence (P35348 1-466 F187A): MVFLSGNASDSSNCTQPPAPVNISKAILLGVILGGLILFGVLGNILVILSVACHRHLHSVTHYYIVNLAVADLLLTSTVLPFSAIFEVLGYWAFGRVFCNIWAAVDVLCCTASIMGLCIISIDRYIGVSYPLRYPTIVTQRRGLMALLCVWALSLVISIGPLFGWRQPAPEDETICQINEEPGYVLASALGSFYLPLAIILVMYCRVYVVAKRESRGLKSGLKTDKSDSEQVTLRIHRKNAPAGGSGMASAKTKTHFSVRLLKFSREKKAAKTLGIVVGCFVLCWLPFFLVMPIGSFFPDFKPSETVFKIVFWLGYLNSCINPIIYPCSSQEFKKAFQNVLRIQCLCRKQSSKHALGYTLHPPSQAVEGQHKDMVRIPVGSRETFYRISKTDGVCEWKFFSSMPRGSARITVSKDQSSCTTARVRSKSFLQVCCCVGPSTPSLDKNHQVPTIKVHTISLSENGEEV

[2] = target: T2, human α1A-AR F288A variant (Homo sapiens, UniProt P35348, F288A)
T2 construct: expressed in transfected cells; host or cells: COS-7 (transient, calcium phosphate), membranes
T2 sequence (P35348 1-466 F288A): T1 sequence (P35348 1-466 F187A) with A187F, F288A

[3] = target: T3, human α1A-AR F86A variant (Homo sapiens, UniProt P35348, F86A); conditions: F86A (2.64), n = 3–6
T3 construct: expressed in transfected cells; host or cells: COS-7, transient (calcium phosphate)
T3 sequence (P35348 1-466 F86A): T1 sequence (P35348 1-466 F187A) with F86A, A187F

O=C1c2ccccc2CCC1CNCCc1ccc(O)c([125I])c1 (centres unmarked) [125I-HEAT]
^125I-HEAT Ratio (loss of affinity relative to WT) ([1]; F187A): 0.22 ^*
^125I-HEAT pKd ([1]; F187A (5.41), saturation binding, n = 3–6): 10.70±0.01
^125I-HEAT Ratio (loss of affinity relative to WT) ([2]; F288A): 1.3
^125I-HEAT pKd ([2]; F288A (6.51), saturation binding, n = 3–6): 9.92±0.12
^125I-HEAT pKd [3]: 8.68±0.09
